From patent US6627653B2, “Anticonvulsant derivatives useful for the treatment of depression” (Ortho-McNeil Pharmaceutical, Inc., priority 2000, dated 2003)
Read-outs that look alike come from different tables or passages of the source.

Assays:
[1] = Clinical case study, Example 2: topiramate add-on therapy; assay type: in vivo, human; settings: for previous pharmacological treatment of patient's depression, outcome: treatment history of the Example 2 patient
Procedure: Initially the patient was started on topiramate add-on therapy at 25 mg/day, with increased dosage to 150 mg/day over the course of one month, in response to the patient's clinical behavior (the patient experienced suicidal ideation). One month later, the topiramate therapy was further increased to 300 mg/day, with the patient also taking 20 mg/day methylphenidate and 150 mg/day venlafaxine.

[2] = several rodent models of epilepsy; cited from earlier work
[3] = Clinical case study, Example 1: topiramate added to existing pharmacotherapy; assay type: in vivo, human
Procedure: In the first case, the patient was a person who had suffered from depression for 25 years.
Topiramate was prescribed for the patient as add-on therapy to existing treatment of venlafaxine at 225 mg/day and mirtazapine at 30 mg/day. Topiramate treatment was initiated at 25 mg/day, with increased dosage to 150 mg/day. […] After six months, mirtazapine was withdrawn and topiramate daily dosage increased to 200 mg/day.
Following one year, topiramate and venlafaxine were withdrawn because of a surgical procedure. […] The patient was subsequently restarted on topiramate at 300 mg/day.

[4] = animal model of kindled epilepsy; cited from earlier work
[5] = adjunctive therapy or monotherapy; cited from earlier work

SMILES: N[C@@H]1C[C@H]1c1ccccc1 (racemic) [tranylcypromine]
- previous pharmacological treatment of patient's depression, outcome [1]: unsuccessful

SMILES: CN(C)CCC=C1c2ccccc2CCc2ccccc21 [amitriptyline]
- previous pharmacological treatment of patient's depression, outcome [1]: unsuccessful

SMILES: CC1(C)O[C@@H]2[C@@H](CO[C@@]3(COS(N)(=O)=O)OC(C)(C)O[C@@H]23)O1 [topiramate, 2,3:4,5-bis-O-(1-methylethylidene)-β-D-fructopyranose sulfamate]
- patient-reported state ([1]; after three month of treatment): never felt so well
- mood state ([1]; at eight months of therapy, venlafaxine 150 mg/day and topiramate 300 mg/day): normothymic
- clinical rating of depression ([1]; topiramate 300 mg/day with methylphenidate 20 mg/day and venlafaxine 150 mg/day, about two months): much improved
- block of seizures [2]: effectively block seizures
- clinical evaluation of depression ([3]; after eight months, topiramate 300 mg/day): very much improved
- clinical evaluation of depression ([3]; after six months, mirtazapine withdrawn, topiramate 200 mg/day): very much improved
- clinical evaluation of depression ([3]; after two months, topiramate 150 mg/day add-on to venlafaxine 225 mg/day and mirtazapine 30 mg/day): very mild depressive
- patient-reported state after restart ([3]; restarted on topiramate 300 mg/day after relapse, following six months of treatment): feeling very well
- block of seizures [4]: effectively block seizures
- efficacy in treating seizures [5]: effective
